Results published in patent US11033624B2, “Medical item for prevention and treatment of ear infection” (Novaflux Inc., priority 2010, dated 2021).

Experiment: Thermogravimetric analysis weight loss
Assay type: physicochemical
Details: 250° C., pure state, heating rate 10° C./min
Experimental: An anti-biotic agent was selected consisting of ciprofloxacin betaine crystalline powder (C.A.S. Registry No. 85721-33-1). Ciprofloxacin is a broad spectrum antimicrobial agent having less than 1 percent weight loss at a temperature of 250° C. when measured in a pure state by thermogravimetric analysis at a heating rate of 10° C./min. The ciprofloxacin melted over a temperature range of 252° C. to 271° C.

O=C(O)c1cn(C2CC2)c2cc(N3CCNCC3)c(F)cc2c1=O [Ciprofloxacin, ciprofloxacin betaine]
weight loss by thermogravimetric analysis: less than 1%
